The species entered for series [1] is Homo sapiens. Kind of series: Compound was tested in vitro inhibitory activity against human neutrophil CD11b/CD18. It counts as functional.
For a further series, the target named is Phosphodiesterase 4 (Homo sapiens, UniProt P27815+Q08499+Q07343+Q08493). Kind of series: Inhibition of Phosphodiesterase 4. It is filed as protein assay.
The species entered for series [2] is Rattus norvegicus. Description: Compound was tested for in vitro inhibition against rat blood. It counts as functional.
For another series, the system named is RBL-2H3. Kind of series: Compound was tested for in vitro inhibition against 5-LO translocation in rat basophilic leukemia cells (RBL-2H3). It is filed as functional, cell-based.
The species entered for series [3] is Cavia porcellus. Kind of series: Compound was tested for in vitro inhibition against broken guinea pig peritoneal exudate cells. It counts as functional.
The species entered for series [4] is Homo sapiens. Kind of series: Compound was tested for in vitro inhibition against human PMNL. It counts as functional.
The target in another series is Phosphodiesterase 3 (Homo sapiens, UniProt Q14432+Q13370). Kind of series: Inhibition of Phosphodiesterase 3. It is filed as protein assay.
The species named for series [5] is Mus musculus. Kind of series: Compound was tested for in vitro inhibition against murine macrophage. It counts as functional.
For series [6], the system named is Cavia porcellus. Kind of series: Compound was tested for in vivo inhibition against antigen bronchospasm. It counts as functional. The settings on record: Bronchiole.
Series [7] has as its system Homo sapiens. Kind of series: Compound was tested for inhibition of LTD4 bronchoconstriction following 4 mg/kg oral dose; active. It counts as functional, organism-based. Also noted: dose 4 mg/kg. The settings on record: Lung.
Series [8] concerns the target T1, Cysteinyl leukotriene receptor (Homo sapiens, UniProt Q9Y271+Q9NS75).
T1 sequence (Q9Y271 whole entry): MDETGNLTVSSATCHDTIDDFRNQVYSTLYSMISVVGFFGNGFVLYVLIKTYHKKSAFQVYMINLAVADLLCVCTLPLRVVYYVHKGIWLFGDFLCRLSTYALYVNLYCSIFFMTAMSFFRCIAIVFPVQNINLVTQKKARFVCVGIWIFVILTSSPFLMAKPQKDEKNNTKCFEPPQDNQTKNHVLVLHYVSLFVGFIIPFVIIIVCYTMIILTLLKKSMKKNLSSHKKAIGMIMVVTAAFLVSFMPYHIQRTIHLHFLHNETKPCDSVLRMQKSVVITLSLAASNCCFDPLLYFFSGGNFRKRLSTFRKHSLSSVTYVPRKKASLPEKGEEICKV
T1 sequence (Q9NS75 whole entry): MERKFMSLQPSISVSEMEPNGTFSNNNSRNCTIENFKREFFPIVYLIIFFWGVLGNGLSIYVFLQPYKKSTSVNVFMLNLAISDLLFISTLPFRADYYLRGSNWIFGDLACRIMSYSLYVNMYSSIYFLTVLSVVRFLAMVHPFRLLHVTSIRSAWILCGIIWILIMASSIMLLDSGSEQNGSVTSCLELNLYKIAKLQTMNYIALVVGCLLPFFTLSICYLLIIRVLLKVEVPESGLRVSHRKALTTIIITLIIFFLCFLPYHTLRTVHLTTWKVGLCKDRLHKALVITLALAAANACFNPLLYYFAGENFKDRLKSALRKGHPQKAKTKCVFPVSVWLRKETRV
Kind of series: Binding affinity against Cysteinyl leukotriene D4 receptor. It counts as protein assay.

The subject of series [9] is Homo sapiens. Description: LTD4 induced broncho constriction (shift in dose response curve 2 hr following 800 mg oral dose). It counts as functional.
Series [10] deals with Rattus norvegicus. Description: Compound was tested for in vivo inhibition on rat PMNL. It counts as functional.
For series [11], the species on record is Homo sapiens. Description: Compound was tested for in vitro inhibition on human PMNL. It is filed as functional.
Series [12] has as its system Cavia porcellus. Description: Compound was tested for in vivo inhibition on gp antigen bronchospasm. It is filed as functional. The settings on record: Bronchiole.
Series [13] can be described thus: phase 1 oral half life at a dose 400 mg. The settings on record: human, in vivo. It is filed as ADME, organism-based.
Series [14] relates to Cavia porcellus. Kind of series: Compound was tested in vivo for LTB4 induced neutrophil chemotaxis in guinea pig.(orally) at duration 21 h. As to conditions: po. It is filed as functional.
The target in series [15] is Leukotriene B4 receptor 1 (Homo sapiens, UniProt Q15722). Description: Compound was tested for inhibitory activity against human neutrophil LTB4 receptor binding.
Chain of Leukotriene B4 receptor 1 (Q15722 whole entry): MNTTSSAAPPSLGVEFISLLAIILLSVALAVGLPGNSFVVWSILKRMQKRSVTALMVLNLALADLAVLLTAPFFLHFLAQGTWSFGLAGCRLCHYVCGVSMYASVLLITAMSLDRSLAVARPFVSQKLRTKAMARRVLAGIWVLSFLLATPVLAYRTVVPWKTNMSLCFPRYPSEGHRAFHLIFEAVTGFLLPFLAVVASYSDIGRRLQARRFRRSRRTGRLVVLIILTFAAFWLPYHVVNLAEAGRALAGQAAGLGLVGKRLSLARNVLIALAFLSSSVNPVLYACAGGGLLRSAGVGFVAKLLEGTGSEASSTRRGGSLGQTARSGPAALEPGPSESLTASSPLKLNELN
For series [16], the species on record is Homo sapiens. Description: Compound was tested in vitro for inhibitory activity in LTB4 induced chemotaxis. It is filed as functional, organism-based.
The species named for series [17] is Homo sapiens. Description: Compound was tested in vitro for inhibitory activity in LTB4 induced neutrophil degranulation. It counts as functional, organism-based.
Series [18] has as its system Cavia porcellus. Kind of series: compound was tested in vivo for LTB4 induced neutrophil chemotaxis in guinea pig(orally) at duration 24 h. As to conditions: po. It counts as functional.
The species named for series [19] is Homo sapiens. Description: Compound was tested in vitro for inhibitory activity in LTB4 induced neutrophil degranulation. It is filed as functional.
In series [20] the test system is Cavia porcellus. Description: Compound was tested in vivo inhibitory activity against PMA induced ear edema in guinea pig (orally). It is filed as functional. The settings on record: po.
Series [21] deals with Cavia porcellus. Description: Compound was tested in vivo inhibitory activity against LTB4 induced bronchoconstriction (intravenous). It counts as functional.
In series [22] the test system is Cavia porcellus. Description: Compound was tested in vivo inhibitory activity against LTB4 induced bronchoconstriction (orally). It counts as functional. As to conditions: po.
The test system of series [23] is Mus musculus. Description: Compound was tested in vivo inhibitory activity against LTB4 induced mouse peritonitis (orally). It is filed as functional. As to conditions: po.
For series [24], the system named is Cavia porcellus. Kind of series: Compound was tested in vivo inhibitory activity against AA induced ear edema. It counts as functional.
Series [25] deals with T2, Cysteinyl leukotriene receptor 1 (Homo sapiens, UniProt Q9Y271).
T2 sequence (Q9Y271 whole entry): T1 sequence (Q9Y271 whole entry)
Description: Compound were tested for inhibitory activity against Cysteinyl leukotriene D4 receptor.

Series [26] is filed under the species Cavia porcellus. Description: Compound was tested for LTD4 induced guinea pig trachea contraction. It is filed as functional.
For series [27], the target named is T2, Cysteinyl leukotriene receptor 1. Kind of series: Compound was tested for inhibitory activity against LTD4 (leukotriene). It counts as functional.
Series [28] has as its system Homo sapiens. Kind of series: Fold shift in LTD4 dose response curve following 250 mg oral dose. It is filed as functional.
For series [29], the species on record is Homo sapiens. Description: Compound was tested for in vitro inhibition against human whole blood. It counts as functional.
Series [30] is filed under the species Homo sapiens. Kind of series: Compound was tested for in vitro inhibition against human PMNL. It counts as functional.
Series [31] is filed under the species Rattus norvegicus. Description: Compound was tested for in vitro inhibition against Rat PMNL. It is filed as functional.
The subject of series [32] is Mus musculus. Description: Compound was tested for in vivo inhibition against mouse AA ear edema. It counts as functional.
The subject of series [33] is Cavia porcellus. Description: Compound was tested for in vivo inhibition against gp antigen bronchospasm. It counts as functional. The settings on record: Bronchiole.
Series [34] concerns Rattus norvegicus. Description: Compound was tested for in vivo inhibition against rat zymosan induced exudate. It is filed as functional.
Series [35] is described as follows: phase 1 oral half life at a dose 50 mg - 750 mg. It is filed as ADME, organism-based. The settings on record: human, in vivo.

Molecules are shown by their SMILES. The source made the active and inactive calls. The rule behind the calls is not given here.

Compound `CCc1cc(-c2ccc(F)cc2)c(O)cc1OCCCOc1ccc2c(=O)c3cc(C(=O)O)ccc3oc2c1CCC(=O)O` gave an IC50 in the series filed under Homo sapiens [1] of 1.2 nM.

For `C[C@H](C(=O)O)c1ccc2ccc(OCc3ccc4ccccc4n3)cc2c1.NC(CO)(CO)CO`, the IC50 against Phosphodiesterase 4 was determined as 8900 nM; in the series listed under Rattus norvegicus [2], 8100 nM; in the series with RBL-2H3 it was 53 nM; in the series listed under Cavia porcellus [3], 5700 nM; in the series filed under Homo sapiens [4], 1200 nM; against Phosphodiesterase 3, 15800 nM. For the same compound, in the series filed under Mus musculus [5], inhibition was half-maximal at 160 nM (IC50). The ED50 in the series on Cavia porcellus [6] is 7.3 mg/kg.

For `O=C(O)CCS[C@@H](CC(=O)O)c1ccccc1CCCCCCCCc1ccccc1`, the result in the series with Homo sapiens [7] was Active. In series [8], this compound showed an inhibitory constant (Ki) of 60 nM.

The compound `c1ccc(Cc2nn[nH]n2)c(COc2ccc(OCc3ccc4ccccc4n3)cc2)c1` [RG-12525] showed a Ki in series [8] of 3 nM. The Activity in the series on Homo sapiens [9] is recorded as 7.5.

As to `CC(=O)N(O)C/C=C/c1cccc(Oc2ccccc2)c1`, the results for the ED50 with Rattus norvegicus [10] and with Cavia porcellus [12] were 54 mg/kg and 10 mg/kg, respectively. For the same compound, in the series filed under Homo sapiens [11], half-maximal inhibition (IC50) required 40 nM. The half-life in series [13] is 2 h.

Take `CCCc1c(OCCCOc2ccc(C(=O)NC)c(OC)c2CC2CC2)ccc2c1OC(CCC(=O)O)CC2` (configuration not stated): the ED50 with Cavia porcellus [14] was 0.09 mg/kg. In addition, the IC50 in series [15] came out at 1.5 nM; in the series filed under Homo sapiens [16], 38 nM; in the series listed under Homo sapiens [17], 29 nM.

For `CCCc1c(OCCCOc2ccc(C(=O)NC)c(OC)c2CC2CC2)ccc2c1O[C@H](CCC(=O)O)CC2`, the ED50 in the series with Cavia porcellus [18] was 0.07 mg/kg; in the series with Cavia porcellus [20], less than 2.5 mg/kg. Also, the IC50 in the series listed under Homo sapiens [19] stood at 19 nM; in series [15], 1.3 nM; in the series listed under Homo sapiens [16], 32 nM.

In the case of `CCCc1c(OCCCOc2cc(O)c(C(C)=O)cc2CC)ccc2c1OC(C(=O)O)CC2` (configuration not stated), the ED50 in the series on Cavia porcellus [21] was determined as 0.23 mg/kg; in the series on Cavia porcellus [22], 0.5 mg/kg.

As for `COc1ccc(CCCCCCCCOc2ccc(CSCc3cccc(C(=O)O)c3)nc2/C=C/C(=O)O)cc1`, the ED50 with Mus musculus [23] came to 7.1 mg/kg; in the series with Cavia porcellus [24], 0.58 mg ear-1.

In series [25], `CN(C)C(=O)CCS[C@H](SCCC(=O)[O-])c1cccc(/C=C/c2ccc3ccc(Cl)cc3n2)c1.[Na+]` showed an IC50 of 3.1 nM. Also, the pKB in the series listed under Cavia porcellus [26] turned out to be 8.8.

Turning to `CCCc1c(OCCCS(=O)(=O)c2ccc(C(=O)CCC(=O)O)cc2)ccc(C(C)=O)c1O` [L-648051], in series [8], the Ki is 6200 nM.

`O=C(O)c1ccccc1Nc1cccc(OCc2ccc3ccccc3n2)c1` [SR-2640] gave an IC50 in series [27] of 23 nM. Further, the Activity with Homo sapiens [28] was less than 2.

Regarding `O=C(O)[C@@H](c1ccc(OCc2ccc3ccccc3n2)cc1)C1CCCC1` [VELIFLAPON], the figures for the IC50 in the series filed under Homo sapiens [29], in the series filed under Homo sapiens [30] and in the series filed under Rattus norvegicus [31] were 11600 nM, 220 nM and 26 nM, respectively. Moreover, the ED50 with Mus musculus [32] was determined as 49 mg/kg; in the series on Cavia porcellus [33] it was 6.3 mg/kg; in the series on Rattus norvegicus [34] it was 8 mg/kg. For the same compound, the half-life in series [35] is 4 h.

Broadly, the IC50 is the midpoint of a concentration-inhibition curve. A high value points to weaker potency in that assay. For orientation: Ki means a dissociation constant, usually derived from enzyme kinetics or from competition with a known ligand. Low values mean a stronger hold on the target, high ones a looser hold on the target. Usually half-life stands for how long it takes for the measured level to halve. A higher half-life goes with slow decline. Usually pKB stands for the negative decadic logarithm of the KB, by convention in mol/L.

The values above are taken from ChEMBL document CHEMBL1129361, “Modulators of leukotriene biosynthesis and receptor activation” (J Med Chem, 1996).
